According to patent US10278971B2, “Fluorocyclopentenylcytosine methods of use” (Rexahn Pharmaceuticals, Inc., priority 2015, dated 2019):

Experiments:
SW1573/G = details: as reported in Peters et al. 2013; cited from earlier work
A549 cells = assay: Protein expression by western blot; format: cell-based, human
Experimental: (§1) The mechanism of cell cycle arrest was investigated by measuring cell cycle proteins expression using western blotting. The influence of RX-3117 on protein expression during different treatment conditions was analyzed by western blot. Cells were lysed using cell lysis buffer 1× (Cell Signaling, Danvers, Mass., USA) containing 4% protease inhibitor cocktail (Roche Diagnostics, Mannheim, Germany) on ice for 30 minutes and centrifuged for 10 minutes at 4° C. at 14,000 rpm. The protein containing supernatant was collected and the Bio-Rad assay was performed to determine protein amount as described in Lemos et al., Pharmacogenomics, 12(2):159-70 (2011). The following antibodies were used for protein expression: DNMT1 (Cell Signaling, 1:1000 #5032S), DNMT3A (Cell Signaling 1:1000 #2160S), DNMT3B (Abcam, 1; 1000), Chk2 (Cell Signaling 1:1000 #6334P), Chk1 (Cell Signaling 1:1000), p-CDC25C (Cell Signaling 1:1000 #4901S), Cdk1 (Cell Signaling 1:1000 #9112S), Cdk2 (Cell Signaling 1:1000 #2546S), wee1 (Cell Signaling 1:1000), 5139-γH2A.X (Cell Signaling, 1:1000), β actin (Sigma, 1:10,000), Caspase 9 (Cell Signaling, 1:1000), PARP (Roche 2003, 1:1000), p53 (Cell Signaling, 1:1000, #9282). The antibodies were diluted in 1:1 solution Rockland buffer (Rockland Inc., Philadelphia, Pa., USA) and PBS supplemented with 0.05% Tween® 20. The proteins were separated in 20% SDS-PAGE and transferred to a PVDF membrane. For fluorescent signal secondary antibodies goat anti-mouse InfraRedDye and goat anti-rabbit InfraRedDye were used. The proteins were detected by an Odyssey InfraRed Imager (Li-COR Bioscience, Lincoln, Nebr., USA).
(§2) The influence of RX-3117 on protein expression during different treatment conditions was analyzed by western blot. Cells were lysed using 1× cell lysis buffer (Cell Signaling, Danvers, Mass., USA) containing 4% protease inhibitor cocktail (Roche Diagnostics, Mannheim, Germany) on ice for 30 minutes and centrifuged for 10 minutes at 4° C. at 14,000 rpm. Bio-Rad assay was performed to determine protein amount in the collected supernatant as described earlier (Lemos C, Kathmann I, Giovannetti E, Calhau C, Jansen G and Peters G J: Impact of cellular folate status and epidermal growth factor receptor expression on BCRP/ABCG2-mediated resistance to gefitinib and erlotinib. Br J Cancer 100: 1120-7, 2009). The following antibodies were used for protein expression: γH2A.X (cat#9718, Cell Signaling, 1:1000), β-actin (Sigma, 1:10,000), Cdc25C Ser216 (cat#4901, Cell Signaling, 1:1000), Cdk1 Tyr15 (cat#9111, Cell Signaling, 1:1000), […] (cat#2197S, Cell Signaling, 1:1000), Histone 3 (cat#4499, Cell Signaling). Antibodies were diluted in 1:1 solution with Rockland buffer (Rockland Inc, Philadelphia, Pa.) and phosphate buffered saline (PBS) supplemented with 0.05 Tween 20. Proteins were separated in 20% SDS-PAGE gel and transferred to polyvinylidene difluoride (PVDF) membrane. For fluorescent signal secondary anti-bodies goat anti-mouse InfraRedDye and goat anti-rabbit InfraRedDye were used. Proteins were detected by an Odyssey InfraRed Imager (Li-COR Bioscience, Lincoln, Nebr.).

SW1573 cells = assay: Protein expression by western blot; format: cell-based, human
Experimental: as §1, §2

A2780 cells = assay: Protein expression by western blot; format: cell-based, human; details: A2780, 0.1 μM to 10 μM, 48 h
Experimental: as §2, with “For fluorescent signal secondary anti-bodies goat anti-mouse InfraRedDye and goat anti-rabbit InfraRedDye were used.” left out

H460 = assay: Clonogenic assay, radiosensitizing effect; format: cell-based, human; details: H460, 1 μM pre-incubation 24 h, irradiation
Experimental: (§3) Exponential growing A2780, SW1573, A549, H460 and SW1573/G-cells were exposed to 1 μM RX-3117 or untreated (control) for 24 h and irradiated with single doses γ-radiation (0-6 Gy) using a ^60Co source (Gammacell 200, Atomic Energy of Canada, Ltd). Subsequently, 500 cells/T25 flasks were plated and allowed to form colonies. After ten days colonies were fixed with 100% ethanol and stained with 10% Giemsa stain solution (Merck Chemicals BV, Amsterdam, the Netherlands) for colonies counting. Plating efficiency (PE) was calculated by dividing the number of colonies formed through the number of cells plated and normalized for cytotoxicity induced by control. To illustrate the effect of RX-3117 on radiation, dose modifying factor (DMF) was calculated as described earlier (Bijnsdorp I V, van den Berg J, Kuipers G K, Wedekind L E, Slotman B J, van Rijn J, Lafleur M V M and Sminia P: Radiosensitizing potential of the selective cyclooygenase-2 (COX-2) inhibitor meloxicam on human glioma cells. J Neurooncol 85: 25-31, 2007).

A2780 = assay: Clonogenic assay, radiosensitizing effect; format: cell-based, human
Experimental: as §3

A549 = assay: Clonogenic assay, radiosensitizing effect; format: cell-based, human; details: A549, 1 μM pre-incubation 24 h, irradiation 0-6 Gy
Experimental: as §3

SW1573/G- = assay: Clonogenic assay, radiosensitizing effect; format: cell-based, human; details: 1 μM pre-incubation 24 h, irradiation
Experimental: as §3

SW1573 = assay: Clonogenic assay, radiosensitizing effect; format: cell-based, human
Experimental: as §3

[1] = SW1573, 10 μM, 48 hour exposure
[2] = SW1573, 24 hour exposure to increasing concentrations

Nc1ccn([C@@H]2C(F)=C(CO)[C@@H](O)[C@H]2O)c(=O)n1 [RX-3117, 4-amino-1-((1S,4R,5S)-2-fluoro-4,5-dihydroxy-3-hydroxymethyl-cyclopent-2-enyl)-1H-pyrimidin-2-one]
IC50 (SW1573/G): 7.3 µM
p53 expression levels (A549 cells; A549, 1 μM and 5 μM): increased
expression of p16INK4A and MGMT (A549 cells; A549, 5 μM, 24 hr exposure): increased
DNMT3A and DNMT3B expression levels (A549 cells; A549, 1-75 μM): increased
pro-caspase 9 (A549 cells; A549, 24 hour exposure to increasing concentrations): decreased
γH2A.X protein expression, combination with irradiation (SW1573 cells; SW1573, 0.3 μM plus irradiation): more pronounced
double strand break damage marker γH2A.X (SW1573 cells; SW1573, 0.3 μM, 48 h exposure): increased
expression of p16INK4A and MGMT (SW1573 cells; SW1573, 5 μM, 24 hr exposure): increased
Chk1 and Cdk2 expression levels (SW1573 cells; [1]): increased
p-Cdc25C expression levels (SW1573 cells; [1]): decreasing
cleaved PARP (SW1573 cells; [2]): induced cleaved PARP
pro-caspase 9 (SW1573 cells; [2]): decreased
wee1 expression levels (SW1573 cells; [2]): decreased
double-strand breaks (DSB), biomarker γH2A.X (SW1573 cells; SW1573, 48 hour exposure): induced double-strand breaks
γH2A.X S139 induction (A2780 cells): induction of γH2A.X S139 in a dose dependent manner
radiosensitizing effect (H460): poor radiosensitizing effect
dose modifying factor (DMF) (A2780; A2780, 1 μM pre-incubation 24 h, irradiation 0-6 Gy): 1.8
plating efficiency compared to control (A2780; A2780, pre-incubation 1 μM 24 h, 4 Gy): five times lower
dose modifying factor (DMF) (A549): 1.8
dose modifying factor (DMF) (SW1573/G-): 1.4
colonies outgrowth, fractionated radio therapy (SW1573; SW1573, 1 μM prior to 5 times 2 Gy): lowest colonies outgrowth
dose modifying factor (DMF) (SW1573; SW1573, 5 μM (FIG. 16 legend) pre-incubation 24 h, irradiation): 1.5
